These results are taken from patent US8557300B2 (priority 2005, dated 2013).

Where two headings read alike, the source gives them in different places.

In series [1] the test system is sodAsodB mutant of strain PAO1. Conditions: aerobic conditions, LB pH 6.5, 15 mM NO2^−. Here is the method:
CFU are measured daily and plotted in logarithmic scale. For aerobic samples, strains are grown with vigorous shaking (300 rpm).

Series [2] deals with FRD1 and FRD1/pmucA in CD1 mouse airways.
Series [3] concerns mucoid strain FRD1. Conditions: FRD1, CF ultrasupernatants pH 6.24, 15 mM NO2^−. Here is the method: CFU are determined (n=3) and plotted as the X±SEM vs. time.
Purulent secretions are harvested from the airways of CF lungs which physicians remove at the time of lung transplantation.

The subject of series [4] is mucoid FRD1 and nonmucoid FRD1/pmucA in mouse lungs.
Method: CD1 mice are infected with FRD1 or FRD1/pmucA.
CD1 mice are infected with ˜10^6 FRD1 or FRD1/pmucA entrapped in agar beads intratracheally. […] On the fifth day, the mice are sacrificed and the viable bacteria from the lung homogenates are enumerated.
The efficacy of HNO2 to kill strain FRD1 in a PA chronic lung infection model is then determined.
Series [5] deals with FRD1 in mouse lungs. The conditions noted are these: FRD1-infected mice, daily 15 mM NO2^− pH 6.5 for 16 days.
Series [6] deals with mucoid CF clinical isolates of PA. It counts as cell-based, Pseudomonas aeruginosa. Conditions: isolates marked by black arrows in FIG. 6. Here is the method:
(§1) The CFU in the inoculum versus that after a 4 day anaerobic incubation are determined.

For series [7], the system named is FRD1 and FRD1/pmucA. As to the kind of experiment: NO gas exposure of bacterial suspension (FIG. 10). The class given is cell-based, Pseudomonas aeruginosa. Conditions: 380 nM solution concentration of NO, LB pH 6.5, 24 hr anaerobic. Here is the method: A NO gas at 333 ppm is balanced with pure argon and continuously bubbled for 24 hr anaerobically.
Nitric oxide (NO) gas (200 ppm, 0.4 μM) balanced with Ar is anaerobically delivered to a water-jacketed chamber in which ˜10^8 bacteria/ml are suspended. […] Gas flow is constantly maintained at 3 ml/min. Pure Ar gas is used as a control.

Series [8] concerns PA mucA, mucB, mucD, algW, algD, algT(U) mutant strains and clinical isolates. Here is the method:
Other than mucA, the aforementioned genes are the only reported loci that, when inactivated, allow for mucoid conversion in PA (25-27).
(§2) The PA strains used in this study include laboratory strains PAO1 (5), CF isolate FRD1 (6), other sputum isolates from CF patients, and sixteen mucoid isolates. Complementation of the mucA mutant allele of strain FRD1 is achieved by transformation with ptacmucA. Aerobic starter cultures are grown in L-broth (10 g tryptone, 5 g NaCl and 5 g yeast extract, per liter) at 37° C. […] To support anaerobic respiration, KNO3 and/or NaNO2 are added to the medium. The pH of the medium is adjusted with 100 mM sodium phosphate (for pH 6.5) or 100 mM sodium acetate (for pH 5.5). To enumerate viable cells in cultures, colony forming units (CFU) are determined.

Series [9] deals with Staphylococcus aureus. The conditions noted are these: slightly acidified. The source says: The current last resort for treatment against these antibiotic resistant strains is with vancomycin.
Series [10] concerns CF airway epithelial cultures. Here is the method:
Transepithelial short circuit current (Isc in μA/Cm^2) is measured to monitor any change in bioelectric properties.
A primary culture of human airway epithelial cells is performed. […] LDH is measured using a commercially available spectrophotometric assay kit (Biovision Research Products, Mountain View, Calif.) according to the manufacturer's instructions. Then, the bioelectric properties of cultured airway epithelial cells are analyzed.

The test system of series [11] is primary cultures of CF airway epithelia. Conditions: 15 mM NO2^−, 24 hr. Here is the method:
(§3) For experiments measuring transepithelial water flux, the primary cultures of airway epithelia are cultured in a specially humidified incubator, to prevent evaporative water loss from the culture surface. […] BD concentration is measured optically and IL-8 concentrations in basolateral media are measured using commercially available antibody pairs (R&D Systems, Minneapolis, Minn.) according to the manufacturer's instructions. […] At various time points, aliquots of apical liquid are aspirated and stored at −20° C.

For series [12] the following is noted: apical, cultured CF airway epithelia; preliminary studies. Here is the method:
as §3

In series [13] the test system is CF airway epithelial cultures. The conditions noted are these: 15 mM NO2^−, 24 hr. Here is the method: as §3
Series [14] relates to anaerobic biofilms of FRD1 and FRD1/pmucA. Here is the method: For the confocal laser microscopic analysis of anaerobic FRD1 biofilms, live cells are stained with syto-9, and dead cells are stained with propidium iodide.
An 8-chambered coverslip system (Lab-Tek Inc., Campbell, Calif.) is used for biofilm architecture and viability experiments. […] Bacterial viability staining and image acquisition are accomplished as described previously by Sparkman et al.
Anaerobic biofilms of strains FRD1 and FRD1/pmucA are grown for 1 day in media containing NO3^−, which supports anaerobic respiration.

The subject of series [15] is nonmucoid PAO1, mucoid FRD1, nonmucoid FRD1/pmucA. Conditions: pH 6.5, anaerobic. Here is the method:
The colony forming units (CFU) are enumerated each day and plotted.
Based upon the slightly acidic pH measurements of segmental and subsegmental bronchi from CF transplant patients, discussed above, well-characterized P. aeruginosa strains are grown at pH 6.5 under strict anaerobic conditions.
as §2

In series [16] the test system is PA strains isolated from 5 different young CF patients. The conditions noted are these: 15 mM NO2^−. Here is the method:
as §2

Series [17] relates to mucoid FRD1. Here is the method: as §2
Series [18] has as its system human CF airway epithelium. Conditions: up to 20 times the dose required to kill mucoid mucA mutant PA, 2 μl apical, pH 6.5, 24 hr.
In series [19] the test system is FRD1 and FRD1/pmucA. Here is the method: The FRD1 and FRD1/pmucA are seeded on LB agar and buffered at the indicated pH.
Plates are incubated for 2 days under anaerobic conditions.

Series [20] concerns mucoid FRD1 and nonmucoid FRD1/pmucA. Conditions: pH 6.5/15 mM NO2^− versus pH 5.5/[…] NO2^−.
In series [21] the test system is mucoid CF clinical isolates of PA. Here is the method: as §1, §2
Series [22] concerns PA sputum isolates CF-1 to CF-5. The conditions noted are these: CF-1 to CF-4, 15 mM NO2^−, pH 6.5, anaerobic, 1 day. The text has this:
The effect of HNO2 on the killing of sputum isolates from CF patients is also monitored.

Series [23] has as its system mucoid FRD1 and nonmucoid FRD1/pmucA. The conditions noted are these: 15 mM NO2^−, pH 6.5, anaerobic, 5 days. Here is the method: The black bars indicate non-mucoid FRD1/pmucA and the gray bars indicate mucoid FRD1.
as §2

Series [24] deals with nor CB mutant of FRD1. The conditions noted are these: pH 6.5.
The subject of series [25] is mucoid FRD1. As to the kind of experiment: Protection of mucoid FRD1 from acidified NO2^− by NO scavengers (FIG. 9). The class given is cell-based, Pseudomonas aeruginosa. Conditions: millimolar concentrations (5 mM); LB pH 6.5, 15 mM NO2^−. The text has this: Line 3 is the FRD1 control bacteria alone.

As for `O=NO` [HNO2, nitrous acid], the “sensitivity of sodAsodB mutant” value in series [1] was “not sensitive”. Also, the competitive index in [2] (complemented strain FRD1/pmucA, 6 days) is given as around 1.0; in [2] ({}), around 0.2. Also, the HNO2 concentration by setting is: (pH 6.5/15 mM NO2^− and pH 5.5/[…] NO2^−) around 10 µM; (pH 6.5 and 15 mM NO2^−) 10.62 µM. The “speed of killing compared with L-broth” value in [3] is recorded as “killed faster”. Also, the “decrease of mucoid FRD1 in lung” value in [4] (pH 5.5) is reported as above 3 logs; in series [4] (pH 6.5, 15 mM NO2^− intranasal), above 2 logs. Further, the “decrease of nonmucoid FRD1/pmucA in lung” value in [4] (pH 6.5 and pH 5.5) was “but not nonmucoid FRD1/pmucA, are decreased”. Moreover, the “bacteria in lung after long-term treatment” value in series [5] was “no bacteria detected”.
Regarding `NCC[C@H](O)C(=O)N[C@@H]1C[C@H](N)[C@@H](O[C@H]2O[C@H](CN)[C@@H](O)[C@H](O)[C@H]2O)[C@H](O)[C@H]1O[C@H]1O[C@H](CO)[C@@H](O)[C@H](N)[C@H]1O` [amikacin], in series [6], the “resistance of 4 clinical isolates” value is “highly resistant”.
For the compound `[N]=O` [NO, nitric oxide], the “killing of FRD1 by NO/Ar gas mixture” value in series [7] is listed as “is killed”.
`O=NO` [NO2^−, nitrite]: in series [8], the “LD50 for sensitive strains compared with FRD1” value is on record as “almost identical to that for FRD1”; the “sensitivity of FRD1 derived nonmucoid mutants ΔalgD and ΔalgT(U)” value was “equally sensitive”; the “sensitivity of PDO300 (PAO1 mucA22)” value is given as “sensitive”; the “sensitivity of mucB, mucD and algW mutants of PAO1” value was “not sensitive”. Moreover, the “susceptibility of Staphylococcus aureus incl. MRSA” value in [9] is listed as “exhibited susceptibility”. In addition, the “amiloride-sensitive Isc” value in series [10] (15 mM NO2^− treated (control 15.4±1.4, p=0.92)) stood at 15.7±1.7 μA/cm^2. In [10] (15 mM NO2^− treated (control 17.7±3.0, p=0.92)), the “UTP-activated Isc” value turned out to be 18.1±3.3 μA/cm^2. Besides, the “basal transepithelial short circuit current (Isc)” value in series [10] (NO2^− at varying concentrations) is reported as “not affected”. Besides, the “immune response as release of IL-8” value in series [11] is recorded as “does not cause activation of an immune response”. Also, the “half-life of NO2^− on CF airway surfaces” value in series [12] was around 5 h. The “transepithelial water flux (Jv)” value in [13] is given as “does not alter transepithelial water flux”. For the same compound, the biofilm response result in series [14] (FRD1/pmucA biofilm, acidified NO2^−) is reported as “resistance to acidified NO2^− is clearly evident”. For the same compound, in series [14] (FRD1 biofilm, 15 mM NO2^−, pH 6.5, 2 days), the “death of biofilm organisms” value is listed as “nearly complete death of biofilm organisms”. Moreover, the “biofilm structure and cell viability relative to control” value in [14] (FRD1 biofilm, 15 mM NO2^−, pH 7.5, 2 days) is “no difference in biofilm structure and cell viability”. Besides, the “viability of nonmucoid strains PAO1 and FRD1/pmucA” value in [15] (15 mM NO2^−, 4 day incubation) was “remained viable”. Also, the rate of killing in [15] (mucoid FRD1, 15 mM NO2^−) was determined as 90 % per day. Besides, the “in vitro sensitivity of organisms recovered from mouse airways after exposure” value in [4] (mouse, in vivo) is on record as “still sensitive”. For the same compound, in [16], the “killing of mucoid variants of patients A, B, C and D” value is given as 1.9-3.1 logs. The same compound yielded an LD50 in series [17] (mucoid FRD1, pH 6.5, 24 hr anaerobic) of around 3 mM. Moreover, in series [17] (pH 6.5), the bacteria killed entry is recorded as “Ninety to ninety-five” and the “killing on long-term exposure” value was “all organisms are killed”. The “cytotoxicity by lactate dehydrogenase release” value in series [18] was “no cytotoxicity”. For the same compound, the “killing versus pH” value in series [19] (FRD1, filter disc 10 μl of 1 M NO2^−, anaerobic 48 hours) is “more effectively at lower pH”. Also, in series [19] (FRD1/pmucA, pH values between 6.0 and 7.5), the “killing versus pH” value is listed as “little or no killing”. Further, the “killing of mucoid bacteria at identical HNO2 concentrations” value in series [20] is “equal killing”. Besides, in series [21] (15 mM NO2^−, pH 6.5, anaerobic), the “mucA mutant mucoid isolates showing increased susceptibility” value is 78 out of 82. Also, the “number of mucoid isolates with wild-type mucA allele resistant, out of 12” value in series [21] (acidified NO2^−) came to 8. Besides, the “sensitivity of 4 antibiotic-resistant strains” value in series [21] (anaerobic treatment with acidified NO2^−) is reported as “still sensitive”. Besides, the “share of isolates killed by more than 2 logs” value in series [21] (mucA mutant mucoid isolates, 15 mM NO2^−, pH 6.5, anaerobic) was determined as 74%. In [22], the “viability of mucoid mucA mutant sputum isolates” value was “a sharp decrease in viability”. In addition, the “viability of nonmucoid FRD1/pmucA after mixed incubation” value in [23] is reported as “maintains viability”. In addition, the “CFU of mucoid FRD1 after mixed incubation” value in series [23] (three bacterial ratios) was < 10^3 CFU/ml. For the same compound, the “sensitivity of norCB mutant relative to FRD1” value in series [24] is around 10 fold.
For `NC[C@H]1O[C@H](O[C@H]2[C@H](O)[C@@H](O[C@H]3O[C@H](CO)[C@@H](O)[C@H](N)[C@H]3O)[C@H](N)C[C@@H]2N)[C@H](N)C[C@@H]1O` [tobramycin], in series [6], the “resistance of 4 clinical isolates” value was “highly resistant”.
On to `O=[N+]([O-])O` [NO3^−, nitrate, reference compound], for which the “viability patterns of FRD1, PAO1 and FRD1/pmucA” value in [15] (15 mM NO3^−) is “no difference in viability patterns is observed”.
As for `CC1(C)N([O])C(c2ccc(C(=O)O)cc2)=[N+]([O-])C1(C)C` [carboxy-PTIO], in [25], the “protection of FRD1 from killing by acidified NO2^−” value was “strong protective effect”.
With gentamycin, the “resistance of 4 clinical isolates” value in [6] was “highly resistant”.
On the same count and under the same terms, then `CC(C)(O/N=C(\C(=O)N[C@@H]1C(=O)N2C(C(=O)[O-])=C(C[n+]3ccccc3)CS[C@H]12)c1csc(N)n1)C(=O)O` [ceftazidime], with “highly resistant”.
